These results are taken from patent US4002733A, “Sunscreening compositions” (Minnesota Mining and Manufacturing Company, priority 1974, dated 1977).

A short description of this series: UV absorption of the product in solution (absorption maximum, Epsilon value). Conditions: solvent not stated. Format: physicochemical.

For the compound `CCC(=O)c1ccc(NC(=O)CCCCCCCCC(=O)Nc2ccc(C(=O)CC)cc2)cc1` [Example 4], the absorption maxima is on record as 292 nm and the “molar extinction coefficient (Epsilon value)” value is given as 48,000.
